Literature values in US9375001B1, “Granular fly bait” (Wellmark International, priority 2012, dated 2016).
Read-outs that look alike come from different tables or passages of the source.

In the case of OC[C@H]1O[C@@](CO)(O[C@H]2O[C@H](CO)[C@@H](O)[C@H](O)[C@H]2O)[C@@H](O)[C@@H]1O [Sucrose], the “Solubility of Sucrose in Water, Sucrose/water” value (“Solubility … Sucrose/water” below) (50 ° C.) is given as 2.59 wt/wt, the “Solubility … Sucrose/water” value (55 ° C.) is given as 2.73 wt/wt and the “Solubility … Sucrose/water” value (60 ° C.) is given as 2.89 wt/wt. The “Solubility … Sucrose/water” value (65 ° C.) was 3.06 wt/wt, the “Solubility … Sucrose/water” value (70 ° C.) was 3.25 wt/wt and the “Solubility … Sucrose/water” value (75 ° C.) was 3.46 wt/wt. For the same compound, the “Solubility … Sucrose/water” value (80 ° C.) was 3.69 wt/wt, the “Solubility … Sucrose/water” value (85 ° C.) was 3.94 wt/wt and the “Solubility … Sucrose/water” value (90 ° C.) was 4.20 wt/wt.
